Reference: patent publication US12384776B2, “Compounds and uses thereof” (Foghorn Therapeutics Inc., priority 2019, dated 2025)

How the values were obtained:
BRD9 bromodomain = BRD9 bromodomain (Homo sapiens (Human), UniProt Q9H8M2); test: BRD9 bromodomain TR-FRET competition binding assay
Procedure: Procedure: His-Flag-BRD9 (P133-K239; Swiss Prot Q9H8M2; SEQ ID NO:1 mgsshhhhhhenlyfq/gdykddddkgslevlfqg/[…] […]) was cloned, expressed, purified, and then treated with TEV protease. Cleaved His tag was removed by purification. The binding of a biotinylated small molecule ligand of BRD9 was assessed via the LANCE® TR-FRET platform (PerkinElmer), and the compounds were assayed for inhibitory activity against this interaction.
Results: A mixture of biotinylated-ligand and SureLight™ Allophycocyanin-Streptavidin (APC-SA, PerkinElmer AD0201) in 50 mM HEPES (pH 7.4), 50 mM NaCl, 1 mM TCEP (pH 7), 0.01% (v/v) Tween-20, 0.01% (w/v) bovine serum albumin was added to a white 384-well PerkinElmer Proxiplate Plus plate. DMSO or 3-fold serially diluted compounds were then added to the Proxiplate followed by addition of Flag-BRD9. After a 10-minute incubation at room temperature, Eu—W1024 anti-FLAG (PerkinElmer, AD0273) was added. The final reaction mixture that contained 3.75 nM biotinylated ligand, 3 nM Flag-BRD9, 7.5 nM SureLight™ Allophycocyanin-Streptavidin, and 0.2 nM Eu—W1024 anti-FLAG was incubated at room temperature for 90 minutes.
The plates were then read on a PerkinElmer Envision plate reader to determine the ratio of emission at 665 nm over 615 nm. […]

[1] = target: Nanoluciferase-BRD9 fusion protein (3×FLAG-NLuc-BRD9) in SYO-1 cells (Homo sapiens (Human), UniProt Q9H8M2); test: SYO1 BRD9 NanoLuc degradation assay; type: cell-based
Nanoluciferase-BRD9 fusion protein (3×FLAG-NLuc-BRD9) in SYO-1 cells, sequence (Q9H8M2 whole entry, the tested form may be a part): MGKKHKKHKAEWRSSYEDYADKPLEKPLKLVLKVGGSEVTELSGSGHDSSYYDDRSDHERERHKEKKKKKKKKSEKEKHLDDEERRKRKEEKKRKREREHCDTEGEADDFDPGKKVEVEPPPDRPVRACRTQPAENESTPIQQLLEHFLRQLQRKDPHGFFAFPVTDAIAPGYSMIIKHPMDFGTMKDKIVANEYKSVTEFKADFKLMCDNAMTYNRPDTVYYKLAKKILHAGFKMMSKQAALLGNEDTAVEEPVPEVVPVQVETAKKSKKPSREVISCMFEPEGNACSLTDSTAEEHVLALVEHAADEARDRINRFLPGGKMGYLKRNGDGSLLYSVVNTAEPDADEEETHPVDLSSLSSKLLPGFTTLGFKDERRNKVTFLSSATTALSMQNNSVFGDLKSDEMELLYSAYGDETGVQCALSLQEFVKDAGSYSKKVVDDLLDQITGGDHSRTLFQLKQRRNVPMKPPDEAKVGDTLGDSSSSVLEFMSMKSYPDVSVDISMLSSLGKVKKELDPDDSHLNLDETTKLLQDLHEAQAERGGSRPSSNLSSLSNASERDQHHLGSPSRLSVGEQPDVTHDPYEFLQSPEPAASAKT
In short: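 Degradation read as loss of NLuc signal after 6 h compound exposure (1 μM top final, 3-fold steps, 10 points, duplicates) in SYO-1 cells stably carrying 3×FLAG-NLuc-BRD9. Signal normalised between DMSO-treated cells and cells given 1 μM of a known BRD9 degrader.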

BRD9 bromodomain, sequence (Q9H8M2 133-239): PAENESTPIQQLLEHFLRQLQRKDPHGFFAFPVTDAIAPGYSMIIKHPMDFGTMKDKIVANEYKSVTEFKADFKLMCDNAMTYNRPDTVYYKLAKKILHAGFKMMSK

| Compound | IC50 ([1]; SYO-1 cells, 6 hours, Table 6C) [µM] | also measured |
| --- | --- | --- |
| COc1cc(-c2cn(C)c(=O)c3c2CNC(C(=O)O)C3)cc(OC)c1CN(C)C (stereo not drawn) [Compound B2, 8-[4-[(dimethylamino)methyl]-3,5-dimethoxyphenyl]-6-methyl-5-oxo-1,2,3,4,5,6-hexahydro-2,6-naphthyridine-3-carboxylic acid] |  | IC50 (BRD9 bromodomain): > 1 µM |
| CNC(=O)C1Cc2c(c(-c3cc(OC)c(CN(C)C)c(OC)c3)cn(C)c2=O)CN1 (stereo not drawn) [Compound B3, 8-[4-[(dimethylamino)methyl]-3,5-dimethoxyphenyl]-N,6-dimethyl-5-oxo-1,2,3,4,5,6-hexahydro-2,6-naphthyridine-3-carboxamide] |  | IC50 (BRD9 bromodomain): > 1 µM |
| COc1cc(-c2cn(C)c(=O)c3c2CNC(C(N)=O)C3)cc(OC)c1CN(C)C (stereo not drawn) [Compound B4, 8-[4-[(dimethylamino)methyl]-3,5-dimethoxyphenyl]-6-methyl-5-oxo-1,2,3,4,5,6-hexahydro-2,6-naphthyridine-3-carboxamide] |  | IC50 (BRD9 bromodomain): > 1 µM |
| CCNC(=O)N1CCc2c(-c3cc(OC)c(CN(C)C)c(OC)c3)cn(C)c(=O)c2C1 [Compound B5, 5-(4-((dimethylamino)methyl)-3,5-dimethoxyphenyl)-N-ethyl-7-methyl-8-oxo-3,4,7,8-tetrahydro-2,7-naphthyridine-2 (1H)-carboxamide] |  | IC50 (BRD9 bromodomain): < 0.01 µM |
| COc1cc(-c2cn(C)c(=O)c3c2CCN(C(=O)N(C)C)C3)cc(OC)c1CN(C)C [Compound B6, 5-(4-((dimethylamino)methyl)-3,5-dimethoxyphenyl)-N,N,7-trimethyl-8-oxo-3,4,7,8-tetrahydro-2,7-naphthyridine-2 (1H)-carboxamide] |  | IC50 (BRD9 bromodomain): > 0.1 µM |
| CCCCNC(=O)N1CCc2c(-c3cc(OC)c(CN(C)C)c(OC)c3)cn(C)c(=O)c2C1 [Compound B7, N-butyl-5-(4-((dimethylamino)methyl)-3,5-dimethoxyphenyl)-7-methyl-8-oxo-3,4,7,8-tetrahydro-2,7-naphthyridine-2 (1H)-carboxamide] |  | IC50 (BRD9 bromodomain): < 0.01 µM |
| COc1cc(-c2cn(C)c(=O)c3c2CCN(C(=O)NC2CC2)C3)cc(OC)c1CN(C)C [Compound B8, N-cyclopropyl-5-(4-((dimethylamino)methyl)-3,5-dimethoxyphenyl)-7-methyl-8-oxo-3,4,7,8-tetrahydro-2,7-naphthyridine-2 (1H)-carboxamide] |  | IC50 (BRD9 bromodomain): > 0.01 µM |
| CNC(=O)N1CCc2c(-c3cc(OC)c(CN(C)C)c(OC)c3)cn(C)c(=O)c2C1 [Compound B9, 5-(4-((dimethylamino)methyl)-3,5-dimethoxyphenyl)-N,7-dimethyl-8-oxo-3,4,7,8-tetrahydro-2,7-naphthyridine-2 (1H)-carboxamide] |  | IC50 (BRD9 bromodomain): < 0.01 µM |
| COc1cc(-c2cn(C)c(=O)c3c2CCCN3)cc(OC)c1CN1CCC2(CC1)CN(c1ccc3c(c1)C(=O)N(C1CCC(=O)NC1=O)C3=O)C2 (stereo not drawn) [Compound D351] | ≥ 0.01 |  |
| COc1cc(-c2cn(C)c(=O)c3c2N(C)CC3)cc(OC)c1CN1CC(CN2CCC3(CC2)CN(c2ccc4c(c2)C(=O)N(C2CCC(=O)NC2=O)C4)C3)C1 (stereo not drawn) [Compound D352] | ≥ 0.01 |  |
| COc1cc(-c2cn(C)c(=O)c3c2COC3)cc(OC)c1CN1CCN(c2ccc3c(c2)C(=O)N(C2CCC(=O)NC2=O)C3=O)CC1 (stereo not drawn) [Compound D373] | < 0.01 |  |
| COc1cc(-c2cn(C)c(=O)c3c2CCC3)cc(OC)c1-c1ccc2c(c1)C(=O)N(C1CCC(=O)NC1=O)C2 (stereo not drawn) [Compound D374] | < 0.01 |  |
| COc1cc(-c2cn(C)c(=O)c3c2CCC3)cc(OC)c1CN1CCC2(CC1)CN(c1cccc(N3CCC(=O)NC3=O)c1)C2 [Compound D375] | ≥ 1 |  |
| CNC(=O)N1CCc2c(-c3cc(OC)c(CN4CCN(CCC5CCN(c6c(F)c(F)c7c(c6F)C(=O)N(c6ccc(F)cc6F)C7=O)CC5)CC4)c(OC)c3)cn(C)c(=O)c2C1 [DD1] |  | IC50 ([1]; SYO-1 cells expressing 3×FLAG-NLuc-BRD9, 6 hours incubation, top dose 1 μM): < 0.01 µM |

Continued, in another order:

| IC50 ([1]; SYO-1 cells, 6 hours, Table 6C) [µM] | Compound | also measured |
| --- | --- | --- |
| < 0.01 | COc1cc(-c2cn(C)c(=O)c3c2CCC3)cc(OC)c1CN1CCC(CN2CCC3(CC2)CN(c2ccc4c(c2)C(=O)N(C2CCC(=O)NC2=O)C4)C3)CC1 (stereo not drawn) [Compound D353] |  |
| < 0.01 | COc1cc(-c2cn(C)c(=O)c3c2CCC(=O)N3)cc(OC)c1CN1CCC(CN2CCC3(CC2)CC(Oc2ccc4c(c2)CN(C2CCC(=O)NC2=O)C4=O)C3)CC1 (stereo not drawn) [Compound D354] |  |
| < 0.01 | COc1cc(-c2cn(C)c(=O)c3c2CCC3)cc(OC)c1CN1CCC2(CC1)CN(c1ccc3c(c1)C(=O)N(C1CCC(=O)NC1=O)C3)C2 (stereo not drawn) [Compound D356] |  |
| < 0.01 | COc1cc(-c2cn(C)c(=O)c3c2COC3)cc(OC)c1CN1CCC2(CC1)CN(c1ccc3c(c1)C(=O)N(C1CCC(=O)NC1=O)C3)C2 (stereo not drawn) [Compound D357] |  |
| < 0.01 | COc1cc(-c2cn(C)c(=O)c3c2COC3)cc(OC)c1CN1CCC2(CC1)CN(c1ccc3c(c1)C(=O)N(C1CCC(=O)NC1=O)C3=O)C2 (stereo not drawn) [Compound D358] |  |
| < 0.01 | COc1cc(-c2cn(C)c(=O)c3c2COC3)cc(OC)c1CN1CCC2(CC1)CN(c1ccc3c(c1)CN(C1CCC(=O)NC1=O)C3=O)C2 (stereo not drawn) [Compound D359] |  |
| < 0.01 | COc1cc(-c2cn(C)c(=O)c3c2CCCN3)cc(OC)c1CN1CCC2(CC1)CN(c1ccc3c(c1)CN(C1CCC(=O)NC1=O)C3=O)C2 (stereo not drawn) [Compound D360] |  |
| < 0.01 | COc1cc(-c2cn(C)c(=O)c3c2CCCN3)cc(OC)c1CN1CCC2(CC1)CN(c1ccc3c(c1)C(=O)N(C1CCC(=O)NC1=O)C3)C2 (stereo not drawn) [Compound D361] |  |
| < 0.01 | COc1cc(-c2cn(C)c(=O)c3c2CCC3)cc(OC)c1CN1CC(Oc2ccc3c(c2)C(=O)N(C2CCC(=O)NC2=O)C3=O)C1 (stereo not drawn) [Compound D362] |  |
| < 0.01 | COc1cc(-c2cn(C)c(=O)c3c2CCC3)cc(OC)c1CN1CCC2(CC1)CN(c1ccc3c(c1)C(=O)N(C1CCC(=O)NC1=O)C3=O)C2 (stereo not drawn) [Compound D363] |  |
| < 0.01 | COc1cc(-c2cn(C)c(=O)c3c2CCC3)cc(OC)c1CN1CCN(c2ccc3c(c2)C(=O)N(C2CCC(=O)NC2=O)C3)CC1 (stereo not drawn) [Compound D364] |  |
| < 0.01 | COc1cc(-c2cn(C)c(=O)c3c2CCC3)cc(OC)c1CN1CC(C#Cc2ccc3c(c2)C(=O)N(C2CCC(=O)NC2=O)C3)C1 (stereo not drawn) [Compound D365] |  |
| < 0.01 | COc1cc(-c2cn(C)c(=O)c3c2CCC3)cc(OC)c1CN1CCN(c2ccc3c(c2)C(=O)N(C2CCC(=O)NC2=O)C3=O)CC1 (stereo not drawn) [Compound D366] |  |
| < 0.01 | COc1cc(-c2cn(C)c(=O)c3c2COC3)cc(OC)c1CN1CC(C#Cc2ccc3c(c2)C(=O)N(C2CCC(=O)NC2=O)C3)C1 (stereo not drawn) [Compound D367] |  |
| < 0.01 | COc1cc(-c2cn(C)c(=O)c3c2COC3)cc(OC)c1CN1CC(C#Cc2ccc3c(c2)CN(C2CCC(=O)NC2=O)C3=O)C1 (stereo not drawn) [Compound D368] |  |
| < 0.01 | COc1cc(-c2cn(C)c(=O)c3c2CCC3)cc(OC)c1CN1CC(C#Cc2ccc3c(c2)CN(C2CCC(=O)NC2=O)C3=O)C1 (stereo not drawn) [Compound D369] |  |
| < 0.01 | COc1cc(-c2cn(C)c(=O)c3c2COC3)cc(OC)c1CN1CCC(C#Cc2ccc3c(c2)C(=O)N(C2CCC(=O)NC2=O)C3)CC1 (stereo not drawn) [Compound D370] |  |
| < 0.01 | COc1cc(-c2cn(C)c(=O)c3c2CCC3)cc(OC)c1CN1CCC(C#Cc2ccc3c(c2)C(=O)N(C2CCC(=O)NC2=O)C3)CC1 (stereo not drawn) [Compound D371] |  |
| < 0.01 | COc1cc(-c2cn(C)c(=O)c3c2COC3)cc(OC)c1CN1CCC(CN2CCC3(CC2)CN(c2ccc4c(c2)C(=O)N(C2CCC(=O)NC2=O)C4)C3)CC1 (stereo not drawn) [Compound D372] |  |
